Article PMC9120017, “Inhibition mechanism of the chloride channel TMEM16A by the pore blocker 1PBC” (Nature Communications, 2022)
Read-outs that look alike come from different tables or passages of the source.

Target: T1, mouse TMEM16A mutant G510P (Mus musculus, UniProt Q8BHY3, G510P)
T1 construct: expressed in transfected cells; host or cells: HEK293T
T1 sequence (Q8BHY3 1-960 G510P): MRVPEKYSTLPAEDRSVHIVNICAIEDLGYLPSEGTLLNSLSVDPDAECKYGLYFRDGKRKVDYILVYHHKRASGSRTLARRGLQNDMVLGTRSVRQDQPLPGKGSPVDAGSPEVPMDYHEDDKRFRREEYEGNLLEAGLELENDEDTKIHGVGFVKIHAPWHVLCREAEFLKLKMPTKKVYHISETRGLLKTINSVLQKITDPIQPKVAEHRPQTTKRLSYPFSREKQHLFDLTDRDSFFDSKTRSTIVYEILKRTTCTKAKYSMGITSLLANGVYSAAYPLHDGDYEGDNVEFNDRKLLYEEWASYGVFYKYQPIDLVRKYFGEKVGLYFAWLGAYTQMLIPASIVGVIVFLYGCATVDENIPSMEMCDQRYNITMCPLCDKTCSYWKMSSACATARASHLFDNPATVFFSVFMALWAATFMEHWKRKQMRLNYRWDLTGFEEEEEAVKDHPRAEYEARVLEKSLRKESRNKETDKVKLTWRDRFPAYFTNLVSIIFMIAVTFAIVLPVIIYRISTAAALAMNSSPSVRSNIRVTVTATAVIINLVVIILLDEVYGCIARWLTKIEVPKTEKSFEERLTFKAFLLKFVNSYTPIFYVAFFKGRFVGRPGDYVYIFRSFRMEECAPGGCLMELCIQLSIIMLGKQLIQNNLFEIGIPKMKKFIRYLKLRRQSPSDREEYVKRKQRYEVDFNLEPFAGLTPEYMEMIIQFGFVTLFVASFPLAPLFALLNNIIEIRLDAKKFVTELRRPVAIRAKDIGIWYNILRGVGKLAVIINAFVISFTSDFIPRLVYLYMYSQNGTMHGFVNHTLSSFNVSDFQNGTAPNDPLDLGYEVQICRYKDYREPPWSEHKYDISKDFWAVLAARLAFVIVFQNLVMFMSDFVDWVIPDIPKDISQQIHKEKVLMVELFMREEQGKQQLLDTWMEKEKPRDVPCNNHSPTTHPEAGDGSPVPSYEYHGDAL
Assay: Inside-out patch recording of 1PBC block, mutant G510P
Assay type: cell-based
Conditions: for remaining activity at 3 µM: 1PBC 3; for remaining activity at 3 µM / remaining activity at 10 µM / remaining activity at 30 µM / remaining activity at 100 µM: read-out: fraction of unblocked current; for remaining activity at 10 µM: 1PBC 10; for remaining activity at 30 µM: 1PBC 30; for remaining activity at 100 µM: 1PBC 100
Method: HEK293T cells (ATCC CRL-1573) were maintained in Dulbecco’s modified Eagle’s medium (DMEM; Sigma-Aldrich) supplemented with 10 U ml^−1 penicillin, 0.1 mg ml^−1 streptomycin (Sigma-Aldrich), 2 mM L-glutamine (Sigma-Aldrich), and 10% FBS (Sigma-Aldrich) in a humidified atmosphere containing 5% CO2 at 37 °C. HEK293S GnTI^− cells (ATCC CRL-3022) were maintained in HyClone HyCell TransFx-H medium (GE Healthcare) supplemented with 10 U ml^−1 penicillin, 0.1 mg ml^−1 streptomycin, 4 mM L-glutamine, 0.15% poloxamer 188 (Sigma-Aldrich), and 1% FBS in an atmosphere containing 5% CO2 at 185 rpm at 37 °C. The ac splice variant of mouse TMEM16A (UniProt ID: Q8BHY3), mouse TMEM16B (UniProt ID: Q8CFW1), or mouse TMEM16F (UniProt ID: Q6P9J9) bearing a 3C cleavage site, a Venus YFP, a Myc tag, and a Streptavidin-binding peptide (SBP) downstream of the open reading frame in a modified pcDNA3.1 vector (Invitrogen) were used as described previously[21],[31]. Mutations were introduced using a modified QuikChange method[58] and were verified by sequencing.
HEK293T cells were transfected with 3–4 μg DNA per 6 cm Petri dish using the calcium phosphate co-precipitation method and were used within 24–96 h after transfection. Recordings were performed on inside-out patches excised from HEK293T cells expressing the construct of interest. Patch pipettes were pulled from borosilicate glass capillaries (O.D. 1.5 mm, I.D. 0.86 mm, Sutter Instrument) and were fire-polished with a microforge (Narishige) before use. Pipette resistance was typically 3–8 MΩ when filled with the recording solutions detailed below. Seal resistance was typically 4 GΩ or higher. Voltage-clamp recordings were made using Axopatch 200B, Digidata 1550, and Clampex 10.7 (Molecular Devices). Analog signals were filtered with the in-built 4-pole Bessel filter at 10 kHz and were digitized at 20 kHz. Solution exchange was achieved using a gravity-fed system through a theta glass pipette mounted on an ultra-fast piezo-driven stepper (Siskiyou). […] All recordings were performed at 20 °C.
A symmetrical ionic condition was used throughout. Stock solution with Ca^2+-EGTA contained 150 mM NaCl, 5.99 mM Ca(OH)2, 5 mM EGTA, and 10 mM HEPES at pH 7.40. Stock solution with EGTA contained 150 mM NaCl, 5 mM EGTA, and 10 mM HEPES at pH 7.40. Free Ca^2+ concentrations were adjusted by mixing the stock solutions at the required ratios calculated using the WEBMAXC program (http://web.stanford.edu/~cpatton/webmaxcS.htm). Patch pipettes were filled with the stock solution with Ca^2+-EGTA, which has a free Ca^2+ concentration of 1 mM. 1PBC (ChemBridge) stock was reconstituted in anhydrous DMSO (Sigma-Aldrich) at 100 mM and stored at −20 °C. Working solutions with 1PBC were prepared by serial dilution. Unless otherwise stated, experiments were performed at a saturating Ca^2+ concentration as shown in Supplementary Table 1 and the primary data were corrected for current rundown as described previously[21],[25].
Concentration-response relations, obtained from the ratio of the I-V plots before and after the application of the blocker, were fitted to the Hill equation,1 I/Imax=1/1+IC50/[blocker]^h where I/Imax is the normalized current responses, IC50 defines the concentration at which inhibition is at its half-maximum, and h is the Hill coefficient.

Compound: N#Cc1c(C(F)(F)F)cc(O)n2c1nc1ccccc12 [1PBC]
- IC50 (0 mV, 15 µM Ca2+): 65.7 µM
- I/Imax_+80mV (3 μM 1PBC): 0.9738
- I/Imax_-80mV (3 μM 1PBC, -80 mV): 0.9802
- I/Imax_+80mV (10 μM 1PBC): 0.8477
- I/Imax_-80mV (10 μM 1PBC, -80 mV): 0.885
- I/Imax_+80mV (30 μM 1PBC): 0.6076
- I/Imax_-80mV (30 μM 1PBC, -80 mV): 0.6861
- I/Imax_+80mV (100 μM 1PBC): 0.3872
- I/Imax_-80mV (100 μM 1PBC, -80 mV): 0.4945
- remaining activity at 3 µM (0 mV): 95.8%
- remaining activity at 3 µM (20 mV): 95.6%
- remaining activity at 3 µM (40 mV): 96.9%
- remaining activity at 3 µM (60 mV): 95.5%
- remaining activity at 3 µM (80 mV): 97.4%
- remaining activity at 3 µM (100 mV): 99.8%
- remaining activity at 3 µM (120 mV): 99.8%
- remaining activity at 3 µM (140 mV): 104%
- remaining activity at 3 µM (-20 mV): 96%
- remaining activity at 3 µM (-40 mV): 97.4%
- remaining activity at 3 µM (-60 mV): 99%
- remaining activity at 3 µM (-80 mV): 98%
- remaining activity at 3 µM (-100 mV): 97.4%
- remaining activity at 3 µM (-120 mV): 96.4%
- remaining activity at 3 µM (-140 mV): 96%
- remaining activity at 10 µM (0 mV): 86.9%
- remaining activity at 10 µM (20 mV): 85.8%
- remaining activity at 10 µM (40 mV): 85%
- remaining activity at 10 µM (60 mV): 84.7%
- remaining activity at 10 µM (80 mV): 84.8%
- remaining activity at 10 µM (100 mV): 86%
- remaining activity at 10 µM (120 mV): 86.5%
- remaining activity at 10 µM (140 mV): 87.9%
- remaining activity at 10 µM (-20 mV): 88%
- remaining activity at 10 µM (-40 mV): 90.2%
- remaining activity at 10 µM (-60 mV): 89.1%
- remaining activity at 10 µM (-80 mV): 88.5%
- remaining activity at 10 µM (-100 mV): 89.4%
- remaining activity at 10 µM (-120 mV): 88.8%
- remaining activity at 10 µM (-140 mV): 89%
- remaining activity at 30 µM (0 mV): 64.5%
- remaining activity at 30 µM (20 mV): 64.5%
- remaining activity at 30 µM (40 mV): 63.6%
- remaining activity at 30 µM (60 mV): 62.9%
- remaining activity at 30 µM (80 mV): 60.8%
- remaining activity at 30 µM (100 mV): 62.7%
- remaining activity at 30 µM (120 mV): 62.8%
- remaining activity at 30 µM (140 mV): 65.9%
- remaining activity at 30 µM (-20 mV): 64.6%
- remaining activity at 30 µM (-40 mV): 66.2%
- remaining activity at 30 µM (-60 mV): 68.7%
- remaining activity at 30 µM (-80 mV): 68.6%
- remaining activity at 30 µM (-100 mV): 69.3%
- remaining activity at 30 µM (-120 mV): 71.3%
- remaining activity at 30 µM (-140 mV): 73.4%
- remaining activity at 100 µM (0 mV): 43.2%
- remaining activity at 100 µM (20 mV): 42.1%
- remaining activity at 100 µM (40 mV): 40.7%
- remaining activity at 100 µM (60 mV): 40.1%
- remaining activity at 100 µM (80 mV): 38.7%
- remaining activity at 100 µM (100 mV): 39.6%
- remaining activity at 100 µM (120 mV): 40.6%
- remaining activity at 100 µM (140 mV): 42.9%
- remaining activity at 100 µM (-20 mV): 44.4%
- remaining activity at 100 µM (-40 mV): 47.1%
- remaining activity at 100 µM (-60 mV): 49.1%
- remaining activity at 100 µM (-80 mV): 49.4%
- remaining activity at 100 µM (-100 mV): 50.5%
- remaining activity at 100 µM (-120 mV): 52.6%
- remaining activity at 100 µM (-140 mV): 52.8%
- IC50 (20 mV, 15 µM Ca2+): 63.2 µM
- IC50 (40 mV, 15 µM Ca2+): 60.2 µM
- IC50 (60 mV, 15 µM Ca2+): 58.2 µM
- IC50 (80 mV, 15 µM Ca2+): 54.9 µM
- IC50 (100 mV, 15 µM Ca2+): 59.3 µM
- IC50 (120 mV, 15 µM Ca2+): 60.9 µM
- IC50 (140 mV, 15 µM Ca2+): 69.5 µM
- IC50 (-20 mV, 15 µM Ca2+): 68.2 µM
- IC50 (-40 mV, 15 µM Ca2+): 76.6 µM
- IC50 (-60 mV, 15 µM Ca2+): 83.4 µM
- IC50 (-80 mV, 15 µM Ca2+): 83.4 µM
- IC50 (-100 mV, 15 µM Ca2+): 87.4 µM
- IC50 (-120 mV, 15 µM Ca2+): 94.4 µM
- IC50 (-140 mV, 15 µM Ca2+): 98.6 µM
- IC50 (G510P, V 0 mV): 65.7 µM
- IC50 (G510P, V 20 mV): 63.2 µM
- IC50 (G510P, V 40 mV): 60.2 µM
- IC50 (G510P, V 60 mV): 58.2 µM
- IC50 (G510P, V 80 mV): 54.9 µM
- IC50 (G510P, V 100 mV): 59.3 µM
- IC50 (G510P, V 120 mV): 60.9 µM
- IC50 (G510P, V 140 mV): 69.5 µM
- IC50 (G510P, V -20 mV): 68.2 µM
- IC50 (G510P, V -40 mV): 76.6 µM
- IC50 (G510P, V -60 mV): 83.4 µM
- IC50 (G510P, V -80 mV): 83.4 µM
- IC50 (G510P, V -100 mV): 87.4 µM
- IC50 (G510P, V -120 mV): 94.4 µM
- IC50 (G510P, V -140 mV): 98.6 µM
